Assay results reported in PMC8766756, “Insights on Cancer Cell Inhibition, Subcellular Activities, and Kinase Profile of Phenylacetamides Pending 1H-Imidazol-5-One Variants” (Frontiers in Pharmacology, 2022).

Legend:
HL60 cells = experiment: Cell cycle analysis by flow cytometry; assay type: cell-based, human; conditions: HL60, 1 µM, 48 h, vs untreated control
Method: The cell cycle analysis of the HL60 cells after treatment was performed with 1 µM of KIM-161 by using flow cytometry.
The cells (3.5 × 10^5/well) were incubated with 1 µM 4c (KIM-161) at 37°C for 48 h. Subsequently, the cells were collected and washed twice with ice-cold PBS (1X). The washed cells were fixed on ice for 20 min using a fixation buffer containing paraformaldehyde. Hoechst 33342 (10 μg/ml; Thermo Fisher Scientific, Inc.) was used for staining. The cells were then incubated in the dark for 30 min on ice. A minimum total of 20,000 events were acquired using a BD FACSAria III flow cytometer. Flowlogic version 7.2.1 software (Inivai Technologies, Victoria, Australia) was used to obtain the percentages of cells in the G1, S, and G2/M phases in the singlet-gated population.

bovine brain tubulin = experiment: Tubulin polymerization assay (cell-free); assay type: biochemical; conditions: 10 and 30 µM, compared with KX2-391 (10 µM)
Method: KX2-391 (KX-01), the prototype of KIM-161, is a known powerful tubulin polymerization inhibitor. Consequently, we investigated its effect on tubulin polymerization using a cell-free assay that also included paclitaxel as another positive reference that affects tubulin function through stabilization of tubulin polymers (Figure 9).
FIGURE 9 Tubulin polymerization assay for KIM-161 at 10 and 30 µM compared to paclitaxel (10 µM) and KX2-391 (10 µM) as positive controls. The negative control (vehicle) contained DMSO (1% v/v). The effect on the tubulin assembly was monitored turbidometrically at 340 nm every 30 s for 60 min at 37°C. Fold inhibition of tubulin polymerization was calculated using the V max value for each reaction. The results represent the mean for three separate experiments.
The assembly of purified bovine tubulin was monitored using a kit BK006 purchased from Cytoskeleton Inc. (Denver, CO, USA). The assay was carried out in accordance with the manufacturer's instructions in the tubulin polymerization assay kit manual using the standard assay conditions. The values reported represent the average values from two independent assays. […] Therefore, tubulin assembly was monitored turbidimetrically at 340 nm at 37°C in a Spectramax 340 PC spectrophotometer (Molecular Devices, Sunnyvale, CA, USA). The absorbance was measured at 30-s intervals for 60 min.

[1] = Stability in mouse liver microsomes; assay type: in vitro ADME
Method: The clearance of KIM-161 in MLM or HLM was determined at 37°C as previously described ([Yang et al., 2007]). Both MLM and HLM were obtained from Merck KGaA (Darmstadt, Germany), Cat. No. M9441 (MLM) and M0317 (HLM). The assays were conducted in triplicate in 96-well deep polypropylene plates. […] At five time points, the reaction mixture aliquots were transferred to 96-shallow well stop plates on ice containing acetonitrile with 0.1 µM propafenone. […] The standard curves for the test compound were generated using five concentrations in triplicate that were processed as above but with zero incubation time. The stop plates were centrifuged at 2000g for 10 min, and then, the supernatant aliquots were transferred to a Waters Aquity® UPLC 700 µL 96-well sample plate with cap mat (Waters, Milford, MA). The amount of the compound remaining in the supernatant was quantified by LC/MS/MS using a Waters Xevo TQ MS (electrospray positive mode) coupled to a Waters Aquity® UPLC (BEH column, C18). Propafenone was used as the internal standard. GraphPad® Prism v.5.04 was used for nonlinear fitting of time course data to generate t1/2 values.

[2] = Stability in human liver microsomes; assay type: in vitro ADME; conditions: 37°C, t1/2
Method: The clearance of KIM-161 in MLM or HLM was determined at 37°C as previously described ([Yang et al., 2007]). Both MLM and HLM were obtained from Merck KGaA (Darmstadt, Germany), Cat. No. M9441 (MLM) and M0317 (HLM). The assays were conducted in triplicate in 96-well deep polypropylene plates. KIM-161 was incubated with pooled liver microsomes from male CD-1 mice (Life Technologies, Grand Island, NY), tetrasodium NADPH and magnesium chloride for 60 min at 37°C with gentle shaking. At five time points, the reaction mixture aliquots were transferred to 96-shallow well stop plates on ice containing acetonitrile with 0.1 µM propafenone. […] The standard curves for the test compound were generated using five concentrations in triplicate that were processed as above but with zero incubation time. The stop plates were centrifuged at 2000g for 10 min, and then, the supernatant aliquots were transferred to a Waters Aquity® UPLC 700 µL 96-well sample plate with cap mat (Waters, Milford, MA). The amount of the compound remaining in the supernatant was quantified by LC/MS/MS using a Waters Xevo TQ MS (electrospray positive mode) coupled to a Waters Aquity® UPLC (BEH column, C18). Propafenone was used as the internal standard. GraphPad® Prism v.5.04 was used for nonlinear fitting of time course data to generate t1/2 values.

COc1ccc(/C=C2\N=C(C)N(c3ccc(CC(=O)NCc4ccccc4)cc3)C2=O)cc1 [Compound 4c, (Z)-N-Benzyl-2-(4-(4-(4-methoxybenzylidene)-2-methyl-5-oxo-4,5-dihydro-1H-imidazol-1-yl)phenyl)acetamide]
Cell cycle distribution: G0/G1 phase (HL60 cells): decrease in the G0/G1 phase
Cell cycle distribution: G2/M phase (HL60 cells): increased the population of cells in the G2/M phase
Cell cycle distribution: PreG phase (HL60 cells): accumulate in PreG phase
Cell cycle distribution: S phase (HL60 cells): no difference is seen in cell population in the S phase
tubulin polymerization inhibition (bovine brain tubulin): much weaker tubulin polymerization inhibition than KX2-391
MLM stability ([1]; mouse liver microsomes, 37°C, t1/2): 14.8 min
% Remaining in MLM with NADPH ([1]; with NADPH, >60 min, listed as KIM-161): unchanged
% Remaining in MLM without NADPH ([1]; without NADPH, >60 min, listed as KIM-161): Unchanged >60 min
HLM stability [2]: 22.9 min
